# Read-outs that look alike come from different tables or passages of the source.
# Legend:
# Format in all cases: biochemical
# TTK = biological target: T1, TTK (Homo sapiens, UniProt P33981); assay: Kinase profiling TTK; details: for remaining activity at 100 µM: read-out: residual kinase activity, TTK
# T1 sequence (P33981 1-857): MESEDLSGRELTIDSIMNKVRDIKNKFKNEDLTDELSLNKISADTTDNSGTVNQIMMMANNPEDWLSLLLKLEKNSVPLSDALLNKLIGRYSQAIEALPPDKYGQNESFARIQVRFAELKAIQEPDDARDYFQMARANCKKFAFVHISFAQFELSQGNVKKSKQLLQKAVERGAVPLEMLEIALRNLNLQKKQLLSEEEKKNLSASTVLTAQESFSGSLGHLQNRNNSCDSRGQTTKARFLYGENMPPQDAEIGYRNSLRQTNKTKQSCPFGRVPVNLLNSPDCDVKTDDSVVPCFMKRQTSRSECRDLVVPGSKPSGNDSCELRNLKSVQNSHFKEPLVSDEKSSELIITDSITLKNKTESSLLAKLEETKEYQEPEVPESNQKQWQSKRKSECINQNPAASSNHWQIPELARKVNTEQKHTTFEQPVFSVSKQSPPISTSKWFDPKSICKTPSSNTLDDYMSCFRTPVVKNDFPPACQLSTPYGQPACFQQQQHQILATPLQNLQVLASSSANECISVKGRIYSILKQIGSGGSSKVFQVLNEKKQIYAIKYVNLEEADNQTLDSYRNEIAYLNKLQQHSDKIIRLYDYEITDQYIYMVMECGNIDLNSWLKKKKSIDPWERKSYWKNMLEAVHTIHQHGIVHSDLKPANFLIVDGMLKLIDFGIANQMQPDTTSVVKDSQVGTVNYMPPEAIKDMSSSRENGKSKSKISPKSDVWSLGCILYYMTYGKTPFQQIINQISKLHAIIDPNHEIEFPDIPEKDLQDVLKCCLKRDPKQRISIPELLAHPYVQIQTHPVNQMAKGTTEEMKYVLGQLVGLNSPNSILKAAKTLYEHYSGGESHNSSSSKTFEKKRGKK
# From the text: (§1) Any value less that 25 is considered to be highly significant inhibition.
# BTK = BTK (Homo sapiens, UniProt Q06187); assay: Kinase profiling BTK; details: for remaining activity at 100 µM: read-out: residual kinase activity, BTK
# From the text: as §1
# MKK6 = biological target: T2, MKK6 (Homo sapiens, UniProt P52564); assay: Kinase profiling MKK6; details: for remaining activity at 100 µM: read-out: residual kinase activity, MKK6
# T2 sequence (P52564 1-334): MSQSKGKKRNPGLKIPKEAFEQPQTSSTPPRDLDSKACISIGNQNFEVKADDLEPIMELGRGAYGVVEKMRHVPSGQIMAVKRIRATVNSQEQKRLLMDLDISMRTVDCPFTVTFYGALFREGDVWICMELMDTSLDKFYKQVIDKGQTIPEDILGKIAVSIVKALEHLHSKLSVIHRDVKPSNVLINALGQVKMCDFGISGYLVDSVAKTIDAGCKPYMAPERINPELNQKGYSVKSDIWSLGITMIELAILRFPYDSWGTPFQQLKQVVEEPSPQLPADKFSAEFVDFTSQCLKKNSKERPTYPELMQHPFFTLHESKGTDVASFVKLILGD
# From the text: as §1
# MLK3 = MLK3 (Homo sapiens, UniProt Q16584); assay: Kinase profiling MLK3; details: for remaining activity at 100 µM: read-out: residual kinase activity, MLK3
# From the text: as §1
# S6K1 = S6K1 (Homo sapiens, UniProt P23443); assay: Kinase profiling S6K1; details: for remaining activity at 100 µM: read-out: residual kinase activity, S6K1
# From the text: as §1
# PKA = PKA (Homo sapiens, UniProt P17612); assay: Kinase profiling PKA; details: for remaining activity at 100 µM: read-out: residual kinase activity, PKA
# From the text: as §1
# RSK1 = RSK1 (Homo sapiens, UniProt Q15418); assay: Kinase profiling RSK1; details: for remaining activity at 100 µM: read-out: residual kinase activity, RSK1
# From the text: as §1
# CAMK1 = CAMK1 (Homo sapiens, UniProt Q14012); assay: Kinase profiling CAMK1; details: for remaining activity at 100 µM: read-out: residual kinase activity, CAMK1
# From the text: as §1
# JAK2 = JAK2 (Homo sapiens, UniProt O60674); assay: Kinase profiling JAK2; details: for remaining activity at 100 µM: read-out: residual kinase activity, JAK2
# From the text: as §1
# STK33 = STK33 (Homo sapiens, UniProt Q9BYT3); assay: Kinase profiling STK33; details: for remaining activity at 100 µM: read-out: residual kinase activity, STK33
# From the text: as §1
# IGF-1R = IGF-1R (Homo sapiens, UniProt P08069); assay: Kinase profiling IGF-1R; details: for remaining activity at 100 µM: read-out: residual kinase activity, IGF-1R
# From the text: as §1
# CAMKKb = CAMKKb (Homo sapiens, UniProt Q96RR4); assay: Kinase profiling CAMKKb; details: for remaining activity at 100 µM: read-out: residual kinase activity, CAMKKb
# From the text: as §1
# p38a MAPK = p38a MAPK (Homo sapiens, UniProt Q16539); assay: Kinase profiling p38a MAPK; details: for remaining activity at 100 µM: read-out: residual kinase activity, p38a MAPK
# From the text: as §1
# PKBa = PKBa (Homo sapiens, UniProt P31749); assay: Kinase profiling PKBa; details: for remaining activity at 100 µM: read-out: residual kinase activity, PKBa; for residual kinase activity, PKBa: 100 micromolar inhibitor concentration, 100 is no change
# From the text: as §1
# [1] = 100 micromolar inhibitor concentration, 100 is no change
# [2] = 100 micromolar inhibitor, 100 = no change
# Chain of S6K1 (P23443 whole entry, species assumed): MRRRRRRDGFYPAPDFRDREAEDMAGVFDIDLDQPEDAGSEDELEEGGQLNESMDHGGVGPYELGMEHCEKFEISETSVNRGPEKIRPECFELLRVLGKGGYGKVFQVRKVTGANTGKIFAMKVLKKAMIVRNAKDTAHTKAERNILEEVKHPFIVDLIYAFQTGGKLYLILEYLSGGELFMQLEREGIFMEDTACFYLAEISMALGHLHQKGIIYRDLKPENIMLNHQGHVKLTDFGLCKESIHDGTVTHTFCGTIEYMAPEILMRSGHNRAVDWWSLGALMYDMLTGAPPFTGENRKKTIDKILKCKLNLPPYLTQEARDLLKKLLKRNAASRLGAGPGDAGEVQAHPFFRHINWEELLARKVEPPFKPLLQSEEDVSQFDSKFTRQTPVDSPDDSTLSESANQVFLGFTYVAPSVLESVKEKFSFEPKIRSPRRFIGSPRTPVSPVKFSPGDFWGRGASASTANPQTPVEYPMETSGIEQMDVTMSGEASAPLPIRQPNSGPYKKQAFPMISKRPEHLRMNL
# Chain of CAMK1 (Q14012 whole entry, species assumed): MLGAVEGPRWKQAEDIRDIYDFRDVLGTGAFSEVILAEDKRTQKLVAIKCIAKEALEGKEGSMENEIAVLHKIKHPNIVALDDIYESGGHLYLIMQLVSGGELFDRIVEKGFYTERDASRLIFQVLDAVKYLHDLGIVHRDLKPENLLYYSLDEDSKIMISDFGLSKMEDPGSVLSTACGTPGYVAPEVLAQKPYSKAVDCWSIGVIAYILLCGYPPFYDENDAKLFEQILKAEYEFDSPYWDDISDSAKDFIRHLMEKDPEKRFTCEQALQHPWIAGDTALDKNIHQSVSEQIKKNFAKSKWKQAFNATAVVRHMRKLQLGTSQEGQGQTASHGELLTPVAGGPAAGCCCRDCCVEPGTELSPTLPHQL
# Chain of RSK1 (Q15418 whole entry, species assumed): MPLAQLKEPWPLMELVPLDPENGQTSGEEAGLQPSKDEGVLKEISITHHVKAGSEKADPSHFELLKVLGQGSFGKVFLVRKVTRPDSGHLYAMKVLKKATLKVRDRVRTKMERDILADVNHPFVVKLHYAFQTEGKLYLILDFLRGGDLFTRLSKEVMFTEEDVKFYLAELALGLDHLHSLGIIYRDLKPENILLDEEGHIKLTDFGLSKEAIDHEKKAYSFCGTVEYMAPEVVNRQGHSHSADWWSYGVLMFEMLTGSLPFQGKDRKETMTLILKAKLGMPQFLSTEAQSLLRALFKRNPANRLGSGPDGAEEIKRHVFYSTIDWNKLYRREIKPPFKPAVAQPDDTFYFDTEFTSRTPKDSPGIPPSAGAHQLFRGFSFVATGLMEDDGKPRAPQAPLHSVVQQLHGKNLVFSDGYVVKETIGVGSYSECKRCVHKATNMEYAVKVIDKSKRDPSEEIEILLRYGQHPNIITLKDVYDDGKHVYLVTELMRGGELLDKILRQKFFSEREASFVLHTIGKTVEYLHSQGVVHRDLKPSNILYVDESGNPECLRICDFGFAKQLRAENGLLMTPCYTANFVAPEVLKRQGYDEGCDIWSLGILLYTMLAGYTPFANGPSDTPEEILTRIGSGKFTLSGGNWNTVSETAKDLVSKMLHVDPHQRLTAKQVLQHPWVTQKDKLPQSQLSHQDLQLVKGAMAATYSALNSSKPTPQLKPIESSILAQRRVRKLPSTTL
# Chain of p38a MAPK (Q16539 whole entry): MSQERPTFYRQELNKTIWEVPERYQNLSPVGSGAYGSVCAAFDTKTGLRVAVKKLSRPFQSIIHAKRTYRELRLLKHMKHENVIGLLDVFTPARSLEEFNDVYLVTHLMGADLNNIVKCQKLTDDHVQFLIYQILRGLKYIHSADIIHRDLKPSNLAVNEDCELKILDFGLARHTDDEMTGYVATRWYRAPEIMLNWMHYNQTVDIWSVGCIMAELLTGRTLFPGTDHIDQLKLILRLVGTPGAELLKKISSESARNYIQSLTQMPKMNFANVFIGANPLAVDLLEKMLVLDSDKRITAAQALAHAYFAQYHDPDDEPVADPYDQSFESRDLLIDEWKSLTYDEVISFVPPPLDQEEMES
# Chain of BTK (Q06187 whole entry, species assumed): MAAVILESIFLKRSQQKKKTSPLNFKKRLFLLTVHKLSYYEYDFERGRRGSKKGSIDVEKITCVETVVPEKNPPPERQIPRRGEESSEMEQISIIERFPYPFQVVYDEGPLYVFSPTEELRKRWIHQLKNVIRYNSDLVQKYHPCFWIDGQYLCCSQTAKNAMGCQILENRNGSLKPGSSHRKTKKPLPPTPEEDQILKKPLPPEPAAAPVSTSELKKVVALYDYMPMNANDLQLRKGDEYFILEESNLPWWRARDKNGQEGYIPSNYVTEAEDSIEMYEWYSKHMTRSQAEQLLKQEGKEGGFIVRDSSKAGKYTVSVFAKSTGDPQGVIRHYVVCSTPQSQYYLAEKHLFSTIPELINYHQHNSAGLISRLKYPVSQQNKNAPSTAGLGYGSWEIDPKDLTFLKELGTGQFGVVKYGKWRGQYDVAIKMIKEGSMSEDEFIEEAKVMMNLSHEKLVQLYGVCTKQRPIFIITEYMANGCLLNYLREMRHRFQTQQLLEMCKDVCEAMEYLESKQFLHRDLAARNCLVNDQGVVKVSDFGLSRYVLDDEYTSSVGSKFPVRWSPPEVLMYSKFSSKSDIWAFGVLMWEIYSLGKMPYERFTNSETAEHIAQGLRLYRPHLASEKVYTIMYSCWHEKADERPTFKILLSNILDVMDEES
# Chain of PKBa (P31749 whole entry): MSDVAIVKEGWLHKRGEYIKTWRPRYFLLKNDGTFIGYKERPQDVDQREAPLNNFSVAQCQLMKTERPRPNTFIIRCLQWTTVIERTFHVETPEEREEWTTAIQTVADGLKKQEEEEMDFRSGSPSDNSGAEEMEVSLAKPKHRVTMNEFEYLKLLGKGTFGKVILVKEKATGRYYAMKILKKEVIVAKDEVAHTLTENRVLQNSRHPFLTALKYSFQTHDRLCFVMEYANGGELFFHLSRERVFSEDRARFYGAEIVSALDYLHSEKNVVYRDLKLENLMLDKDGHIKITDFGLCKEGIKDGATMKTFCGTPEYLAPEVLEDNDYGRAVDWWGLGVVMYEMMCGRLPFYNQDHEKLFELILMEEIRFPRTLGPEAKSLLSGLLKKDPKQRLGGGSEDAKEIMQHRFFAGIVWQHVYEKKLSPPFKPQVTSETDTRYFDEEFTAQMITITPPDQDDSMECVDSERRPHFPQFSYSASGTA
# Chain of IGF-1R (P08069 31-1367, species assumed): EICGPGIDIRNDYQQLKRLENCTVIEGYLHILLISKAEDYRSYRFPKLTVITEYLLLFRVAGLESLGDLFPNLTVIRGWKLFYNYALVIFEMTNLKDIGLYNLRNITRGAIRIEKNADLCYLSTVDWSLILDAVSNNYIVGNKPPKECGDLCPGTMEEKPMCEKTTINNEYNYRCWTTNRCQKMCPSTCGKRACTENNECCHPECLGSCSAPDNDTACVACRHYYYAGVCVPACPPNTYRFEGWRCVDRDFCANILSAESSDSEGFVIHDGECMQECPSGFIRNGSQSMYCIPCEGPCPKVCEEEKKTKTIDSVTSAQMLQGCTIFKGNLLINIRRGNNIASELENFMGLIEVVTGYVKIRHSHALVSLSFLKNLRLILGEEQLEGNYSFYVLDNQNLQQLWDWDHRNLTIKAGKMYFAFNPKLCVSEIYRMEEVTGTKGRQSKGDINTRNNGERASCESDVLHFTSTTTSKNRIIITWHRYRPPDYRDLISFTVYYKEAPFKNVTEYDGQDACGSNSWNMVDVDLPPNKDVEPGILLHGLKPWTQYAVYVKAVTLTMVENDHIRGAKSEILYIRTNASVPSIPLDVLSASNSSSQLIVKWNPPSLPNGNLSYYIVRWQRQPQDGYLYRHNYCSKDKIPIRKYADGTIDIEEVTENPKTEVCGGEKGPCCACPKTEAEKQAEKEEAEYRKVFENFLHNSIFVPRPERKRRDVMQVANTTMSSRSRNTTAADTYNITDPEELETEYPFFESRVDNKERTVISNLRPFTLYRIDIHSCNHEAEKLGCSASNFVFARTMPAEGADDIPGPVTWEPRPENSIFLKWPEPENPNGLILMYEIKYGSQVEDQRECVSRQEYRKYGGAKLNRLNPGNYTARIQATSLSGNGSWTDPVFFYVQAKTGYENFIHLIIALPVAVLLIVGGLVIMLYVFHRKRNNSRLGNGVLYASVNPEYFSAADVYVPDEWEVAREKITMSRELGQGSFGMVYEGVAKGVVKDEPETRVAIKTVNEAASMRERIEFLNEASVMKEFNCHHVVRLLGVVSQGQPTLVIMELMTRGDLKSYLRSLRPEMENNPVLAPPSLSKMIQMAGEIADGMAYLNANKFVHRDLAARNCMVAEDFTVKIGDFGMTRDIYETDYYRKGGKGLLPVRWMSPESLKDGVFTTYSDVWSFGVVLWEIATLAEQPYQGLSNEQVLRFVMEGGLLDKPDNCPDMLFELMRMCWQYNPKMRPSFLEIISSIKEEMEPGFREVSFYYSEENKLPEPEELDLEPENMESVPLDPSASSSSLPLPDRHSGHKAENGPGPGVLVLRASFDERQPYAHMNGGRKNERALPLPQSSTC
# Chain of STK33 (Q9BYT3 whole entry, species assumed): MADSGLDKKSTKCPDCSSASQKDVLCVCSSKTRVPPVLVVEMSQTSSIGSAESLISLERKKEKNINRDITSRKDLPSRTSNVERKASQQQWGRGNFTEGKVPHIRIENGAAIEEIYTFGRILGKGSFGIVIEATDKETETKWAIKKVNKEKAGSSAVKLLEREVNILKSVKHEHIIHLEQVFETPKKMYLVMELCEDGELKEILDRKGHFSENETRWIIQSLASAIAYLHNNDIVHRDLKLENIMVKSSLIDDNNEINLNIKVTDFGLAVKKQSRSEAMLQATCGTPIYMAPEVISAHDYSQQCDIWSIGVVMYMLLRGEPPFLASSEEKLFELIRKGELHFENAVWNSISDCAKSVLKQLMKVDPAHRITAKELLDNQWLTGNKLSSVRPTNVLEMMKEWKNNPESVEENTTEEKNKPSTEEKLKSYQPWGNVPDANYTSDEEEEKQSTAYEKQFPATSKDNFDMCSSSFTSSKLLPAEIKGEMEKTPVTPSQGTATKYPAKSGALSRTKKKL
Structure (SMILES),remaining activity at 100 µM (PKBa),"residual kinase activity, TTK (TTK; [1])","residual kinase activity, BTK (BTK; [1])","residual kinase activity, MKK6 (MKK6; [1])","residual kinase activity, MLK3 (MLK3; [1])","residual kinase activity, S6K1 (S6K1; [1])","residual kinase activity, PKA (PKA; [1])","residual kinase activity, RSK1 (RSK1; [1])","residual kinase activity, CAMK1 (CAMK1; [1])","residual kinase activity, JAK2 (JAK2; [1])","residual kinase activity, STK33 (STK33; [1])","residual kinase activity, IGF-1R (IGF-1R; [1])","residual kinase activity, CAMKKb (CAMKKb; [1])","residual kinase activity, p38a MAPK (p38a MAPK; [1])","residual kinase activity, PKBa (PKBa)",also measured
"CC(=O)Nc1nc2cc(O)ccc2s1 [Compound 01-66, N-(5-hydroxybenzo[d]thiazol-2-yl)acetamide]",87%,–,–,–,–,–,–,–,–,–,–,–,–,–,–,remaining activity at 100 µM (TTK): 39%; remaining activity at 100 µM (BTK): 67%; remaining activity at 100 µM (MKK6): 70%; remaining activity at 100 µM (MLK3): 41%; remaining activity at 100 µM (S6K1): 54%; remaining activity at 100 µM (PKA): 95%; remaining activity at 100 µM (RSK1): 44%; remaining activity at 100 µM (CAMK1): 69%; remaining activity at 100 µM (JAK2): 65%; remaining activity at 100 µM (STK33): 52%; remaining activity at 100 µM (IGF-1R): 26%; remaining activity at 100 µM (CAMKKb): 44%; remaining activity at 100 µM (p38a MAPK): 84%
CC(=O)Nc1nc2cc(F)ccc2s1 [Compound 03-77],95%,–,–,–,–,–,–,–,–,–,–,–,–,–,–,remaining activity at 100 µM (TTK; [1]): 64%; remaining activity at 100 µM (BTK; [1]): 105%; remaining activity at 100 µM (MKK6; [1]): 118%; remaining activity at 100 µM (MLK3; [1]): 44%; remaining activity at 100 µM (S6K1; [1]): 48%; remaining activity at 100 µM (PKA; [1]): 95%; remaining activity at 100 µM (RSK1; [1]): 72%; remaining activity at 100 µM (CAMK1; [1]): 106%; remaining activity at 100 µM (JAK2; [1]): 57%; remaining activity at 100 µM (STK33; [1]): 70%; remaining activity at 100 µM (IGF-1R; [1]): 58%; remaining activity at 100 µM (CAMKKb; [1]): 74%; remaining activity at 100 µM (p38a MAPK; [1]): 88%
CC(=O)Nc1nc2cc(C)ccc2s1 [Compound 03-76],–,49,92,113,35,77,105,78,90,51,80,75,71,92,104,–
O=C(Nc1nc2ccc(O)cc2s1)c1cccnc1 [Compound 08-44],–,22,54,107,26,17,92,41,42,30,57,54,59,108,83,–
O=C(Nc1nc2ccc(O)cc2s1)c1ccccn1 [Compound 03-12],–,36,71,99,46,50,97,67,47,71,65,54,41,107,74,–
CC(=O)Nc1nc2ccccc2s1 [Compound 03-32],–,71,100,85,71,92,91,86,99,66,104,74,101,91,104,–
CC(=O)Nc1nc2cc(C(F)(F)F)ccc2s1 [Compound 03-73],106%,–,–,–,–,–,–,–,–,–,–,–,–,–,–,remaining activity at 100 µM (TTK; [1]): 86%; remaining activity at 100 µM (BTK; [1]): 93%; remaining activity at 100 µM (MKK6; [1]): 120%; remaining activity at 100 µM (MLK3; [1]): 57%; remaining activity at 100 µM (S6K1; [1]): 77%; remaining activity at 100 µM (PKA; [1]): 124%; remaining activity at 100 µM (RSK1; [1]): 89%; remaining activity at 100 µM (CAMK1; [1]): 89%; remaining activity at 100 µM (JAK2; [1]): 96%; remaining activity at 100 µM (STK33; [1]): 86%; remaining activity at 100 µM (IGF-1R; [1]): 77%; remaining activity at 100 µM (CAMKKb; [1]): 65%; remaining activity at 100 µM (p38a MAPK; [1]): 92%
"CC(=O)Nc1cccc(NC(=O)c2nc3ccc(O)cc3s2)c1 [Compound 03-07, N-(3-acetamidophenyl)-6-hydroxybenzo[d]thiazole-2-carboxamide]",–,–,–,–,–,–,–,–,–,–,–,–,–,–,–,remaining activity at 100 µM (TTK; [2]): 28%; remaining activity at 100 µM (BTK; [2]): 32%; remaining activity at 100 µM (MKK6; [2]): 114%; remaining activity at 100 µM (MLK3; [2]): 39%; remaining activity at 100 µM (S6K1; [2]): 26%; remaining activity at 100 µM (PKA; [2]): 91%; remaining activity at 100 µM (RSK1; [2]): 48%; remaining activity at 100 µM (CAMK1; [2]): 44%; remaining activity at 100 µM (JAK2; [2]): 56%; remaining activity at 100 µM (STK33; [2]): 63%; remaining activity at 100 µM (IGF-1R; [2]): 96%; remaining activity at 100 µM (CAMKKb; [2]): 30%; remaining activity at 100 µM (p38a MAPK; [2]): 93%; remaining activity at 100 µM (PKBa; [2]): 103%
